Laboratory results taken from the supplement of paper PMC10307832.

Key:
Assay in all cases: relative viability (nuclei count vs DMSO), 5 days (fraction); higher = more cells survive
[1] = compound: C/C(=N\NC(=S)N1CCC1)/C2=CC=CC=N2 + CC(C)C[C@H](NC(=O)[C@H](Cc1ccccc1)NC(=O)c1cnccn1)B(O)O [Bortezomib] (partner 0.002 µM)
Procedure, shortened: (§1)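 A single step with final 0.05% Triton X-100, 1% formaldehyde and 1 ug/ml Hoechst fixed the cells and stained nuclei 5 days after treatment. Lung cancer cell lines in 1536-well plates had been treated by pin tool the day after seeding with one drug alone or a fixed anchor-drug dose plus five library-drug doses (not always all listed) in √10 steps, and nuclei were counted on 4× images. Relative viability is the ratio of nuclei in treated wells to nuclei in vehicle wells, taken as the median of duplicate plates.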

[2] = compound: C/C(=N\NC(=S)N1CCC1)/C2=CC=CC=N2 + CS(=O)(=O)N1CCN(Cc2cc3nc(-c4cccc5[nH]ncc45)nc(N4CCOCC4)c3s2)CC1 [Pictilisib] (partner 1 µM)
Procedure, shortened: as §1

[3] = compound: C/C(=N\NC(=S)N1CCC1)/C2=CC=CC=N2 + O=C(c1cc(Cc2n[nH]c(=O)c3ccccc23)ccc1F)N1CCN(C(=O)C2CC2)CC1 [Olaparib] (partner 8 µM)
Procedure, shortened: as §1

[4] = compound: C/C(=N\NC(=S)N1CCC1)/C2=CC=CC=N2 + CC(=O)Nc1cccc(-n2c(=O)n(C3CC3)c(=O)c3c(Nc4ccc(I)cc4F)n(C)c(=O)c(C)c32)c1 [Trametinib] (partner 0.02 µM)
Procedure, shortened: as §1

Cell Line	relative viability ([1]; first compound 0.05 µM)	relative viability ([1]; first compound 0.1581 µM)	relative viability ([1]; first compound 0.5 µM)	relative viability ([1]; first compound 1.581 µM)	relative viability ([1]; first compound 5 µM)	relative viability ([2]; first compound 0.05 µM)	relative viability ([2]; first compound 0.1581 µM)	relative viability ([2]; first compound 0.5 µM)	relative viability ([2]; first compound 1.581 µM)	relative viability ([2]; first compound 5 µM)	relative viability ([3]; first compound 0.05 µM)	relative viability ([3]; first compound 0.1581 µM)	relative viability ([3]; first compound 0.5 µM)	relative viability ([3]; first compound 1.581 µM)	relative viability ([3]; first compound 5 µM)	relative viability ([4]; first compound 0.05 µM)	relative viability ([4]; first compound 0.1581 µM)	relative viability ([4]; first compound 0.5 µM)	relative viability ([4]; first compound 1.581 µM)	relative viability ([4]; first compound 5 µM)
201T	0.527	0.612	0.418	0.394	0.348	0.438	0.494	0.444	0.389	0.344	0.487	0.871	0.349	0.241	0.247	0.575	0.713	0.327	0.407	0.283
A549	–	–	–	–	–	0.0548	0.0774	0.0703	0.0543	0.0578	0.0312	0.0426	0.0325	0.0517	0.0367	–	–	–	–	–
A-427	0.171	0.147	0.126	0.117	0.114	0.109	0.142	0.129	0.116	0.125	0.2	0.191	0.151	0.154	0.167	0.226	0.215	0.189	0.185	0.178
ABC-1	0.296	0.273	0.233	0.276	0.283	0.305	0.334	0.24	0.222	0.269	0.349	0.338	0.301	0.345	0.438	–	–	–	–	–
BEN	0.15	0.211	0.211	0.193	0.165	0.164	0.162	0.156	0.186	0.176	0.292	0.259	0.271	0.272	0.283	0.341	0.344	0.359	0.3	0.268
CAL-12T	0.21	0.252	0.256	0.215	0.24	0.168	0.198	0.138	0.167	0.178	0.16	0.149	0.185	0.171	0.131	0.0974	0.126	0.163	0.135	0.122
COR-L23	0.12	0.139	0.114	0.077	0.0874	0.134	0.0963	0.103	0.0639	0.0663	0.107	0.0921	0.0895	0.0916	0.105	0.111	0.133	0.124	0.107	0.114
COR-L 105	0.287	0.339	0.297	0.253	0.244	0.318	0.346	0.325	0.279	0.254	0.365	0.381	0.374	0.337	0.318	0.376	0.462	0.377	0.343	0.339
Calu-6	0.165	0.182	0.188	0.171	0.175	0.109	0.139	0.152	0.141	0.132	0.101	0.133	0.141	0.118	0.122	–	–	–	–	–
